Ten compounds from ChEMBL document CHEMBL1201862, “PubChem BioAssay data set” (2004) can be followed below.

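Compound exposure: 48 hours, 5 concentrations, 96-well plates. The concentration for 50% growth inhibition is given as GI50.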 Active and inactive are the calls of the source. No stated cut-off is given here; in the data, active = GI50 up to about 1.1 µM and inactive = higher. Residues, ends and D or L forms follow the SMILES beside them. *: point of attachment. Bn = c1ccc(C*)cc1

Test systems include A549; CCRF-CEM; COLO 205; HCT-15; HOP-92; Hs-578T; IGROV-1; KM12; M14; MDA-MB-231; MDA-MB-435; NCI-H23; OVCAR-5; OVCAR-8; RXF 393; SF-268; SK-MEL-2; SN12C; UACC-257; UACC-62.
Experiment in all cases: growth of human tumour cells (NCI), 48 h

Turning to `CCN(CC)CC(C)(C)C(=O)/C=C/c1ccc(/C=C/C(=O)C(C)(C)CN(CC)CC)cc1`, the GI50 in the assay on A549 is 1.97 µM (inactive); with CCRF-CEM it was 0.0646 µM (active); with COLO 205, 0.339 µM (active); in the assay with HCT-15 it was 0.325 µM; in the assay with HOP-92, 0.397 µM (active); in the assay with Hs-578T, 0.462 µM (active). In addition, the GI50 in the assay on IGROV-1 was 1.27 µM (inactive); in the assay with KM12 it was 0.879 µM (active); with M14, 1.03 µM (active); with MDA-MB-231, 0.206 µM (active); in the assay with MDA-MB-435, 0.897 µM (active); with NCI-H23, 0.991 µM (active). For the same compound, the GI50 was 1.54 µM (inactive) with OVCAR-5; 0.259 µM (active) in the assay with OVCAR-8; 0.233 µM (active) in the assay with RXF 393; 0.512 µM (active) in the assay with SF-268; 1.72 µM (inactive) in the assay with SK-MEL-2; 0.471 µM (active) in the assay with SN12C. Also, the results for the GI50 with UACC-257 and in the assay with UACC-62 were 1.62 µM (inactive) and 1.46 µM (inactive), respectively.
In the case of `O=C(c1ccccc1F)c1c(NCc2ccccc2)c(=O)c1=O`, the GI50 with A549 was > 100 µM (inactive); in the assay on CCRF-CEM, > 100 µM (inactive); in the assay with COLO 205 it was > 100 µM (inactive); in the assay with HCT-15, > 100 µM; in the assay on HOP-92, > 100 µM (inactive); in the assay on Hs-578T, > 100 µM (inactive). The GI50 in the assay with IGROV-1 is 55.7 µM (inactive); in the assay on KM12 it was > 100 µM (inactive); in the assay on M14 it was > 100 µM (inactive); in the assay with MDA-MB-231, > 100 µM (inactive); with MDA-MB-435, > 100 µM (inactive); in the assay with NCI-H23, > 100 µM (inactive). The GI50 in the assay on OVCAR-5, in the assay with OVCAR-8, in the assay on RXF 393, in the assay on SF-268, in the assay on SK-MEL-2 and in the assay with SN12C was > 100 µM (inactive) throughout. In addition, the GI50 with UACC-257 and with UACC-62 was > 100 µM (inactive) throughout.
On to `COc1ccc(/C=C\c2cc(OC)c(OC)c(OC)c2)cc1OC`, for which the GI50 with A549 is 0.239 µM (active); with CCRF-CEM it was 0.13 µM (active); in the assay on COLO 205, 0.0767 µM (active); with HCT-15, 0.113 µM; in the assay with HOP-92, 9.66 µM (inactive); with Hs-578T, 0.0604 µM (active). The GI50 with IGROV-1 is 0.278 µM (active); in the assay on KM12, 0.0957 µM (active); in the assay with M14, 0.139 µM (active); in the assay with MDA-MB-231, 0.472 µM (active); in the assay with MDA-MB-435, 0.0184 µM (active); in the assay on NCI-H23 it was 0.216 µM (active). The GI50 in the assay with OVCAR-5 is 12.2 µM (inactive); in the assay with OVCAR-8, 0.153 µM (active); in the assay with RXF 393, 0.121 µM (active); in the assay on SF-268, 0.298 µM (active); in the assay with SK-MEL-2, 0.0641 µM (active); in the assay with SN12C, 0.216 µM (active). Also, the GI50 in the assay on UACC-257 was 0.136 µM (active); in the assay with UACC-62, 0.197 µM (active).
For the compound `OC1=C2c3ccccc3NC2Oc2cc(F)ccc21` (stereo not given), the GI50 was 19.5 µM (inactive) in the assay on A549; 2.22 µM (inactive) with CCRF-CEM; 14.5 µM (inactive) in the assay with COLO 205; 15.8 µM with HCT-15; 18 µM (inactive) in the assay on HOP-92; 34.7 µM (inactive) in the assay with Hs-578T. Also, the GI50 with IGROV-1 is 21.7 µM (inactive); in the assay on KM12 it was 15.4 µM (inactive); in the assay with M14, 17.3 µM (inactive); in the assay with MDA-MB-231 it was 16.1 µM (inactive); in the assay on MDA-MB-435 it was 17.1 µM (inactive); with NCI-H23 it was 12.9 µM (inactive). Further, the GI50 was 17.9 µM (inactive) with OVCAR-5; 27 µM (inactive) in the assay with OVCAR-8; 16.6 µM (inactive) in the assay on RXF 393; 18.2 µM (inactive) in the assay on SF-268; 19.7 µM (inactive) in the assay on SK-MEL-2; 12.7 µM (inactive) with SN12C. For the same compound, the figures for the GI50 in the assay with UACC-257 and in the assay on UACC-62 were 19 µM (inactive) and 15.7 µM (inactive), respectively.
With `CCOC(=O)C1=C(C)N(Cc2ccccc2)C2(O)C=CC(O)=C3C(=O)c4ccccc4C(=O)C312` (stereo not given), the GI50 with A549 was 15.3 µM (inactive); in the assay on CCRF-CEM, 8.61 µM (inactive); in the assay on COLO 205, 16.8 µM (inactive); with HCT-15, 3.82 µM; with HOP-92 it was 17.2 µM (inactive); in the assay with Hs-578T, 22.4 µM (inactive). Besides, the GI50 with IGROV-1 was 4.16 µM (inactive); with KM12, 12.1 µM (inactive); in the assay with M14, 4.99 µM (inactive); with MDA-MB-231, 15.3 µM (inactive); in the assay with MDA-MB-435 it was 8.93 µM (inactive); with NCI-H23, 8.61 µM (inactive). In addition, the GI50 is 15.8 µM (inactive) in the assay on OVCAR-5; 19.1 µM (inactive) in the assay on OVCAR-8; 3.37 µM (inactive) in the assay with RXF 393; 10.1 µM (inactive) in the assay on SF-268; 13.9 µM (inactive) in the assay on SK-MEL-2; 13.5 µM (inactive) in the assay with SN12C. The results for the GI50 in the assay with UACC-257 and in the assay with UACC-62 were 17.2 µM (inactive) and 14.7 µM (inactive), respectively.
Consider `CC1=C(C2=C(C)C(=O)C(=O)c3cc(C)ccc32)c2ccc(C)cc2C(=O)C1=O`, for which the GI50 with A549 is 1.7 µM (inactive); in the assay on CCRF-CEM it was 0.152 µM (active); in the assay with COLO 205 it was 0.269 µM (active); in the assay on HCT-15, 0.278 µM; in the assay on HOP-92 it was 0.174 µM (active); in the assay with Hs-578T, 0.318 µM (active). In addition, the GI50 in the assay with IGROV-1 was 0.282 µM (active); with KM12, 0.205 µM (active); with M14, 0.182 µM (active); in the assay on MDA-MB-231, 0.283 µM (active); with MDA-MB-435 it was 0.201 µM (active); in the assay with NCI-H23, 0.208 µM (active). Besides, the GI50 with OVCAR-5 is 0.199 µM (active); in the assay on OVCAR-8, 0.245 µM (active); in the assay on RXF 393, 0.234 µM (active); in the assay with SF-268, 0.203 µM (active); with SK-MEL-2 it was 0.313 µM (active); with SN12C it was 0.197 µM (active). In addition, the GI50 with UACC-257 was 0.193 µM (active); in the assay with UACC-62 it was 0.191 µM (active).
Consider `CN(C)c1ccc(/C=C/C=C(/C#N)c2ccccc2)cc1`, for which the GI50 was 32.1 µM (inactive) in the assay with A549; 22.3 µM (inactive) in the assay with CCRF-CEM; 20.4 µM (inactive) in the assay with COLO 205; 6.87 µM with HCT-15; 78.7 µM (inactive) with HOP-92; 21.9 µM (inactive) with Hs-578T. Also, the GI50 in the assay with IGROV-1 was 21.4 µM (inactive); with KM12 it was 4.8 µM (inactive); in the assay with M14, 15.8 µM (inactive); with MDA-MB-231, 37.8 µM (inactive); in the assay with MDA-MB-435, 2 µM (inactive); in the assay on NCI-H23 it was 36.9 µM (inactive). Besides, the GI50 was > 62.7 µM (inactive) in the assay on OVCAR-5; 33 µM (inactive) in the assay on OVCAR-8; 36.8 µM (inactive) with RXF 393; 37.3 µM (inactive) with SF-268; 13.7 µM (inactive) in the assay on SK-MEL-2; 45.4 µM (inactive) in the assay with SN12C. The GI50 in the assay with UACC-257 was 40.7 µM (inactive); in the assay with UACC-62, 19.2 µM (inactive).
Take `CC1=C(C)C(=O)C(C2=C(C3=CC(=O)C(C)=C(C)C3=O)C(=O)C(C)=C(C)C2=O)=CC1=O`: the GI50 with A549 was 30.3 µM (inactive); in the assay with CCRF-CEM it was > 100 µM (inactive); in the assay with COLO 205, 2.89 µM (inactive); in the assay with HCT-15, 0.294 µM; with HOP-92, 0.61 µM (active); in the assay on Hs-578T, 16.1 µM (inactive). For the same compound, the GI50 with IGROV-1 was 10.9 µM (inactive); with KM12 it was 8.51 µM (inactive); in the assay with M14, 10 µM (inactive); in the assay on MDA-MB-231, 2.07 µM (inactive); with MDA-MB-435, 3.52 µM (inactive); with NCI-H23, 14.7 µM (inactive). The GI50 in the assay on OVCAR-5 was 7.85 µM (inactive); in the assay with OVCAR-8, 4.41 µM (inactive); in the assay with RXF 393, 1.83 µM (inactive); with SF-268 it was 12.6 µM (inactive); with SK-MEL-2, 14.5 µM (inactive); in the assay on SN12C, 13.9 µM (inactive). Moreover, the results for the GI50 in the assay on UACC-257 and with UACC-62 were 13.3 µM (inactive) and 10.5 µM (inactive), respectively.
In the case of `CO[C@@H]1C[C@H]2N3CC[C@@]2(c2cc4c(cc2C3)OCO4)[C@H]2O[C@@H]12`, the GI50 in the assay on A549 is > 100 µM (inactive); in the assay with CCRF-CEM, > 100 µM (inactive); in the assay on COLO 205 it was 0.851 µM (active); with HCT-15, > 100 µM; in the assay with HOP-92 it was > 100 µM (inactive); in the assay with Hs-578T it was > 100 µM (inactive). Besides, the GI50 in the assay with IGROV-1, in the assay with KM12, with M14, in the assay on MDA-MB-231, in the assay on MDA-MB-435 and in the assay with NCI-H23 was > 100 µM (inactive) throughout. Also, the GI50 with OVCAR-5, in the assay on OVCAR-8, with RXF 393, in the assay on SF-268, with SK-MEL-2 and in the assay on SN12C was > 100 µM (inactive) each time. Further, the GI50 in the assay with UACC-257 and with UACC-62 was > 100 µM (inactive) each time.
As for `COC(=O)C(CC(C)C)NC(=O)C(N)Cc1ccc(OCc2ccccc2)cc1` (stereo not given) (H-Tyr(Bn)-Leu-OMe; configuration not given here), the GI50 was > 10 µM (inactive) in the assay with A549; > 10 µM (inactive) in the assay with CCRF-CEM; > 10 µM (inactive) with COLO 205; > 10 µM in the assay with HCT-15; > 10 µM (inactive) in the assay with HOP-92; > 10 µM (inactive) in the assay with Hs-578T. Further, the GI50 in the assay with IGROV-1, in the assay with KM12, with M14, with MDA-MB-231, with MDA-MB-435 and in the assay on NCI-H23 was > 10 µM (inactive) each time. Also, the GI50 in the assay on OVCAR-5, in the assay on OVCAR-8, in the assay on RXF 393, in the assay with SF-268, in the assay on SK-MEL-2 and in the assay with SN12C was > 10 µM (inactive) each time. The GI50 in the assay with UACC-257 and in the assay with UACC-62 was > 10 µM (inactive) each time.
